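These data come from cells grown in 96-well plates and exposed to compound for 48 hours at five concentrations. The concentration for full growth arrest is given as TGI.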
Columns and labels:
Experiment in all cases: growth of human tumour cells (NCI), 48 h
[1] = test system: RXF 393 renal
[2] = test system: SF-268 CNS
[3] = test system: OVCAR-4 ovarian
[4] = test system: U251 CNS
[5] = test system: UACC-257 melanoma
[6] = test system: SK-MEL-2 melanoma
[7] = test system: SF-539 CNS
[8] = test system: HCT-116 colon
[9] = test system: CCRF-CEM leukemia
[10] = test system: A549 NSCLC
[11] = test system: NCI-H226 lung
[12] = test system: NCI-H522 lung
[13] = test system: LOX IMVI melanoma
[14] = test system: SR leukemia
[15] = test system: SK-MEL-5 melanoma
[16] = test system: SNB-75 CNS
[17] = test system: UACC-62 melanoma
[18] = test system: HOP-62 NSCLC
[19] = test system: OVCAR-8 ovarian
[20] = test system: 786-0 renal
[21] = test system: SNB-19 CNS
[22] = test system: NCI-H23 lung
[23] = test system: TK-10 renal
[24] = test system: XF 498 CNS
[25] = test system: SK-MEL-28 melanoma
[26] = test system: KM12 colon
[27] = test system: COLO 205 colon
[28] = test system: EKVX NSCLC
[29] = test system: KM20L2 colon
[30] = test system: SW-620 colon
[31] = test system: HCC-2998 colon
[32] = test system: MALME-3M melanoma
[33] = test system: HL-60(TB) leukemia
[34] = test system: IGROV1 ovarian
[35] = test system: SF-295 CNS
[36] = test system: M19-MEL melanoma
[37] = test system: HT29 colon
[38] = test system: MOLT-4 leukemia
[39] = test system: K-562 leukemia
[40] = test system: SN12C renal
[41] = test system: OVCAR-3 ovarian
[42] = test system: UO-31 renal
[43] = test system: ACHN renal
[44] = test system: M14 melanoma
[45] = test system: NCI-H460 lung
[46] = test system: DMS 273 small cell lung
[47] = test system: SK-OV-3 ovarian
[48] = test system: SNB-78 CNS
[49] = test system: HCT-15 colon
[50] = test system: LXFL 529 NSCLC
[51] = test system: A498 renal
[52] = test system: CAKI-1 renal
[53] = test system: DMS 114 small cell lung
[54] = test system: OVCAR-5 ovarian
[55] = test system: DLD-1 colon
[56] = test system: HOP-92 NSCLC
[57] = test system: HOP-18 NSCLC
[58] = test system: RPMI-8226 leukemia

Measured: TGI

Cc1nc2c(n1Cc1ccc(F)cc1)C(=O)c1ccccc1C2=O
31.7 µM: [32]
48.6 µM: [41]
86.9 µM: [39]
26 µM: [12]
24.7 µM: [15]
13.5 µM: [36]
29.7 µM: [33]
87.3 µM: [1]
> 100 µM: [2] | [3] | [4] | [5] | [6] | [7] | [8] | [9] | [10] | [11] | [13] | [14] | [16] | [18] | [19] | [20] | [21] | [22] | [23] | [24] | [25] | [26] | [27] | [28] | [29] | [30] | [31] | [34] | [35] | [37] | [38] | [40] | [42] | [43] | [44] | [45] | [46] | [47] | [48] | [49] | [50]
32.3 µM: [17]

O=C(O)C1Cc2[nH]c3ccccc3c2C2CCCC12 (stereo not drawn)
> 100 µM: [2] | [3] | [4] | [5] | [51] | [6] | [7] | [8] | [9] | [10] | [11] | [12] | [52] | [13] | [14] | [15] | [16] | [17] | [19] | [53] | [20] | [54] | [21] | [22] | [23] | [24] | [25] | [26] | [55] | [27] | [28] | [29] | [30] | [31] | [32] | [34] | [35] | [36] | [56] | [38] | [39] | [40] | [41] | [42] | [43] | [44] | [45] | [46] | [47] | [48] | [49] | [50]

N#CCCN(c1ccc(C=Nc2ccc(C(=O)O)cc2)cc1)S(=O)(=O)c1ccccc1
> 100 µM: [1] | [2] | [3] | [4] | [5] | [51] | [6] | [7] | [8] | [9] | [10] | [11] | [12] | [52] | [13] | [57] | [14] | [15] | [16] | [17] | [18] | [19] | [58] | [53] | [20] | [54] | [21] | [22] | [23] | [24] | [25] | [26] | [55] | [27] | [28] | [29] | [30] | [31] | [32] | [33] | [34] | [35] | [36] | [56] | [37] | [38] | [39] | [40] | [41] | [42] | [43] | [44] | [45] | [46] | [47] | [48] | [49] | [50]

O=C(CO)CC(=O)C(=O)Nc1cccc(C(F)(F)F)c1
> 100 µM: [2] | [3] | [5] | [6] | [7] | [8] | [10] | [11] | [12] | [52] | [13] | [14] | [16] | [17] | [18] | [19] | [58] | [20] | [54] | [21] | [22] | [23] | [24] | [25] | [26] | [55] | [27] | [29] | [30] | [31] | [32] | [33] | [34] | [35] | [56] | [37] | [38] | [39] | [40] | [41] | [42] | [43] | [44] | [45] | [46] | [47] | [49] | [50]

From PubChem BioAssay (NCI)
